Measured values from the SangsterLogP compilation.

How the values were obtained:
[1] = method code SF-AS, from DOI: 10.1021/acs.jmedchem.5b00731, PMID: 26397825; conditions: pH 7.4
[2] = method code SF-RC/EIA, from DOI: 10.1016/s0022-2275(20)42614-8, PMID: 2280184; conditions: pH 1.0
[3] = method code SF-HPLC, from DOI: 10.1016/j.bmc.2009.01.040, PMID: 19208447; conditions: pH 7.0
[4] = method code SF-TN, from Korenman, I M.; Lunicheva, V.; Pomerantseva, G.; Khairulina, D. (1974). Distribution of methacrylic acid between organic solvents and water. Zh. Prikl. Khim., 47(10)2432-2434.
[5] = method code SF-TN, from DOI: 10.1007/bf00632830
[6] = method code SF-AS, from DOI: 10.1021/jm020389w, PMID: 12620073; conditions: pH 7.4
[7] = method code SF-RC, from DOI: 10.1016/j.nucmedbio.2016.05.003, PMID: 27236283; conditions: pH 7.4
[8] = not given; remark: listed apart in the source
[9] = method code SF-AS, from DOI: 10.1021/jm0104926, PMID: 11960499
[10] = method code SF-AS, from DOI: 10.1016/s0021-9673(01)89384-5
[11] = method code SF-AS, from DOI: 10.1016/j.dyepig.2012.09.011; conditions: pH 7.4
[12] = method code SF-HPLC, from DOI: 10.1016/0378-5173(93)90356-k; conditions: pH 7.4
[13] = method code SF-AS, from DOI: 10.1002/jps.2600600712, PMID: 4398902
[14] = not given; remark: listed apart in the source
[15] = method code SF-AS, from Lee, B.; Shin, J.; Lim, M.; Jang, T.; Park, J.; Kim, K.; Kang, W. (1997). Partition Property of 5-Nitrothiopyrimidine Nucleoside. Bull Korean Chem Soc, 18(7)734-736.; conditions: pH 7.0
[16] = method code SF-HPLC, from DOI: 10.1002/ps.2780220406
[17] = method code SF-FL, from DOI: 10.1562/0031-8655(2004)79<242:pmolop>2.0.co;2, PMID: 15115296; conditions: pH 7.4
[18] = method code SF-AS, from Suikov, S.Yu.; Bondarenko, A.V.; Bogza, S.L.; Lutsyk, A.I. (2003). Distribution of 5-aminopyrazoles and 5-aminoisoxazoles in the octanol-water system. Ukr. Khim. Zh. (Russ. Ed.), 69(5/6)31-34.
[19] = method code SF-AS, from DOI: 10.1016/0223-5234(92)90105-a
[20] = not given; remark: listed apart in the source
[21] = method code SF-RC, from DOI: 10.1023/a:1015913817221, PMID: 2798313; conditions: pH 7.4
[22] = not given; remark: listed apart in the source
[23] = not given; remark: listed apart in the source
[24] = not given; remark: listed apart in the source
[25] = method code SF-CR+AS, from DOI: 10.1021/bi00514a045, PMID: 7248282; conditions: pH 7.0
[26] = method code SF, from DOI: 10.1021/bi00507a030, PMID: 7213619; conditions: pH 1.0
[27] = not given; remark: listed apart in the source
[28] = not given; remark: listed apart in the source
[29] = method code SF-AS, from DOI: 10.1562/0031-8655(2003)0780411sacotn2.0.co2, PMID: 14626671; conditions: pH 6.8
[30] = method code SF-AS, from DOI: 10.1562/0031-8655(2002)076<0127:dlbcop>2.0.co;2, PMID: 12194207; conditions: pH 7.3
[31] = method code SF-HPLC, from DOI: 10.1021/jm00056a006, PMID: 8474102; conditions: pH 7.4
[32] = not given; remark: listed apart in the source

Work on COCCOCCOCCOCN(C)c1ccc(C=C2CC(=Cc3ccc(N(C)COCCOCCOCCOC)cc3)C2=O)cc1 yielded a logD [1] of 2.86.
C[C@H](CCC(=O)NCC(=O)O)[C@H]1CC[C@H]2[C@@H]3[C@H](O)C[C@@H]4C[C@H](O)CC[C@]4(C)[C@H]3C[C@H](O)[C@]12C gave a logD [2] of 1.65.
Work on O=C(c1ccccc1)c1cccc(C(O)C(=O)OCC2OC(OC3OC(CO)C(O)C(O)C3O)C(O)C(O)C2O)c1 (stereo not drawn) yielded a logD [3] of -0.25.
In the case of C=C(C)C(=O)O, the logP [4] was 0.93.
In the case of CN(C)C, the logP [5] was 0.27.
In the case of CCCCOC(=O)CC(Cc1cncn1C)C(CC)C(=O)OCc1ccc(COC(=O)C(CC)C(CC(=O)OCCCC)Cc2cncn2C)cc1 (stereo not drawn), the logP was 6.87.
CCN(CC)c1ccc(C=C2CC(=Cc3ccc(N(COCCOCCOCCOC)COCCOCCOCCOC)cc3)C2=O)cc1 showed a logD [1] of 3.2.
For CCOC(=O)Nc1ccc2cc3ccc(N)c(CO)c3nc2c1, the logD [6] was 1.55.
Work on COc1cc(NCCCF)cc(OC)c1NC(=O)c1ccc(Cc2cc3c(cc2C)CCCC3(C)C)o1 yielded a logD [7] of 1.43.
For ClCC(Cl)Cl, the logP [8] was 1.98.
Compound [N-]=[N+]=CC(F)(F)F has a logP [9] of 1.6.
Compound Cc1nccnn1 has a logP [10] of -0.55.
Nc1cccc(-c2c3nc(c(-c4cccc(N)c4)c4ccc([nH]4)c(-c4cccc(N)c4)c4nc(c(-c5cccc(N)c5)c5ccc2[nH]5)C=C4)C=C3)c1 showed a logD [11] of 3.75.
With O=c1[nH]cc(F)c(=O)[nH]1 the logD [12] was -0.7.
Work on S=C1CCCO1 yielded a logP [13] of 0.6.
Work on COc1ccc2c(c1)c(CC(=O)C1c3cccc(O)c3C(=O)c3c(O)cccc31)c(C)n2C(=O)c1ccc(Cl)cc1 yielded a logP [14] of 5.17.
With S=c1cc[nH]c(=S)[nH]1 the logD [15] was -0.86.
Clc1ccc(Cn2cncn2)cc1Cl showed a logP [16] of 2.54.
With Oc1cccc(-c2c3nc(c(-c4cccc(O)c4)c4ccc([nH]4)c(-c4cccc(O)c4)c4nc(c(-c5cccc(O)c5)c5ccc2[nH]5)C=C4)C=C3)c1 the logD [17] was 4.93.
For COc1ccc(-c2cc(N)n[nH]2)cc1, the logP [18] was 1.42.
CCOC(=O)Nc1ccc2nn(C)nc2c1 gave a logP [19] of 1.83.
CCC[N+](=O)[O-] gave a logP [20] of 0.86.
In the case of NC(N)=S, the logD [21] was -0.92.
Cn1cc[nH]c1=S showed a logP [22] of -0.22.
Compound CCOC(=O)C1=C(C)NC(C)=C(C(=O)OCC)C1c1ccccc1/C=C/C(=O)OC(C)(C)C has a logP [23] of 4.43.
FC(F)(F)Cl gave a logP [24] of 1.56.
N#CSO showed a logD [25] of 0.32.
For CCC(N)=O, the logD [26] was -0.66.
C[C@H](CCC(=O)NCC(=O)O)[C@H]1CC[C@H]2[C@@H]3[C@H](O)C[C@@H]4C[C@H](O)CC[C@]4(C)[C@H]3CC[C@]12C showed a logD [2] of 2.12.
C1=Cc2nc1c(-c1cccs1)c1ccc([nH]1)c(-c1cccs1)c1nc(c(-c3cccs3)c3ccc([nH]3)c2-c2cccs2)C=C1 gave a logD [11] of 2.74.
O=S(=O)(O)c1ccc(-c2c3nc(c(-c4ccc(S(=O)(=O)O)cc4)c4ccc([nH]4)c(-c4ccccc4)c4nc(c(-c5ccccc5)c5ccc2[nH]5)C=C4)CC3)cc1 gave a logD [17] of 1.79.
Compound COC(=O)C1=C(C)NC(C)=C(C(=O)OCCN2CCN(C(c3ccccc3)c3ccccc3)CC2)C1c1cccc([N+](=O)[O-])c1 (stereo not drawn) has a logP [23] of 5.2.
With COc1cc(OCCF)cc(OC)c1NC(=O)c1ccc(Cc2cc3c(cc2C)CCCC3(C)C)o1 the logD [7] was 1.85.
With O=C(O)CNCP(=O)(O)O the logP [27] was -3.3.
Work on O=C1C2C3CCC(CC3)C2C(=O)N1CCCCN1CCN(c2ccc3ccccc3n2)CC1 (stereo not drawn) yielded a logP [28] of 4.1.
Work on COc1c(O)c2c(=O)cc(OC)c3c4c(OC)cc(=O)c5c(O)c(NCCN(C)C)c6c(c(c1C(C(C)=O)=C(C)C6)c23)c54 yielded a logD [29] of 0.5.
In the case of CC(C(=O)OCC(O)C(OC1OC(CO)C(O)C(O)C1O)C(O)C(O)C=O)c1cccc(C(=O)c2ccccc2)c1 (stereo not drawn), the logD [3] was -0.13.
Oc1cccc(-c2c3nc(c(-c4cccc(O)c4)c4ccc([nH]4)c(-c4cccc(O)c4)c4nc(c(-c5cccc(O)c5)c5ccc2[nH]5)CC4)C=C3)c1 showed a logD [30] of 5.42.
In the case of CC(C)CC(O)C(O)C(CC1CCCCC1)NC(=O)C(Cc1cscn1)NC(=O)C(Cc1ccccc1)CS(=O)(=O)C1CCN(C)C1 (stereo not drawn), the logD [31] was 3.61.
CCCOC(=O)CC(Cc1cncn1C)C(CC)C(=O)OCc1ccc(COC(=O)C(CC)C(CC(=O)OCCC)Cc2cncn2C)cc1 (stereo not drawn) gave a logP of 5.47.
With c1ccc2c(c1)-c1cc3[nH]c(cc4nc(cc5[nH]c(cc-2n1)c1ccccc51)-c1ccccc1-4)c1ccccc31 the logD [30] was 3.35.
With O=C1CC2(CCCC2)CC(=O)N1CCCCN1CCN(c2ccc3ccccc3n2)CC1 the logP [28] was 4.23.
Work on COC1=C2CC(C)=c3c(C(C)=O)c(OC)c(O)c4c3c2c2c(cc(OC)c3c(OC)cc(O)c4c32)C(=O)C1=O yielded a logD [29] of 1.67.
Compound CC(=O)OC1C(=O)C2(C)C(O)CC3OCC3(OC(C)=O)C2C(OC(=O)c2ccccc2)C2(O)CC(OC(=O)C(O)CNC(=O)c3ccccc3)C(C)=C1C2(C)C (stereo not drawn) has a logP [32] of 1.92.
Work on Nc1c(-c2ccccc2)c(-c2ccccc2)nn1-c1ccccc1 yielded a logP [18] of 4.04.
Compound CC(C(=O)C1c2cccc(O)c2C(=O)c2c(O)cccc21)c1ccc(Cc2ccccc2)cc1 (stereo not drawn) has a logP [14] of 4.46.
Work on CC(C)CC(O)C(O)C(CC1CCCCC1)NC(=O)C(Cc1nccs1)NC(=O)C(Cc1ccccc1)CS(=O)(=O)C1CN(C)C1 (stereo not drawn) yielded a logD [31] of 3.89.
In the case of CC(=O)O[C@H]1C(=O)[C@@]2(C)[C@H]([C@H](OC(=O)c3ccccc3)[C@]3(O)C[C@H](OC(=O)[C@@H](C)O)C(C)=C1C3(C)C)[C@]1(OC(C)=O)CO[C@@H]1C[C@@H]2O, the logP [32] was 1.52.
